Values of other authors, collected in patent US9550804B2, “Dosage form to increase prasterone bioavailability” (Health Science Funding, LLC, priority 2011, dated 2017).
≈ marks a conversion by molar mass, not a printed value.

How the values were obtained:
[1] = not given; remark: listed apart in the source

C[C@]12CC[C@H](O)CC1=CC[C@@H]1[C@@H]2CC[C@]2(C)C(=O)CC[C@@H]12 [Prasterone, (3S,8R,9S,10R,13S,14S)-3-hydroxy-10,13-dimethyl-3,4,7,8,9,10,11,12,13,14,15,16-dodecahydro-1H-cyclopenta[a]phenan-thren-17(2H)-one]
log P (octanol-water): 3.23 | solubility in water [1]: 63.5 µg/mL (≈ 220 µM)
